In patent US11180497B2 (ANGEX PHARMACEUTICAL, INC., priority 2017, dated 2021) one finds IC50 data, which are given here for 43 compounds.

Where only a bound is given, the exact number is not on record here.

This test has as its target T1, Human IDO (Homo sapiens, UniProt P14902).
T1 construct: High control is Hela cells with IFNγ treatment; endogenous in cells; host or cells: HeLa cells treated with 25 ng/ml IFNγ
Nature of the test: HeLa cell IDO assay (IFNγ-treated cells, N-formylkynurenine by RapidFire/MS/MS). It is filed as cell-based. The note with it: 25 ng/ml IFNγ, 200 μM Trp, 48 hours, class symbol.

T1 sequence (P14902 whole entry): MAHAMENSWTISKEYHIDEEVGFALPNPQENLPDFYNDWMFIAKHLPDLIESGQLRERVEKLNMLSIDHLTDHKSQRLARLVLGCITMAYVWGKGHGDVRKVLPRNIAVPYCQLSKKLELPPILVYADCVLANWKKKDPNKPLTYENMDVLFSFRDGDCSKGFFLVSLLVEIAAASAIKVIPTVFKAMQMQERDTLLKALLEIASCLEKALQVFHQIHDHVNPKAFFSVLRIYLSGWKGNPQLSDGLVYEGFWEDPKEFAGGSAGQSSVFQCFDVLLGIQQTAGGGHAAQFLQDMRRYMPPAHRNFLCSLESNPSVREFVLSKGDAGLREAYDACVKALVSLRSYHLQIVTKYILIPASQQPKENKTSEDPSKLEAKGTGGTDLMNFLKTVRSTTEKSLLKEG

As for `Cc1ccc(NC(=O)[C@H]2C[C@]23CC[C@H](c2ccnc4ccc(F)cc42)CC3)cc1` [Compound 1-14], the IC50 – broadly, the midpoint of a concentration-inhibition curve – is less than 100 nM.
To `O=C(Nc1ccc(F)cc1)[C@H]1C[C@]12CC[C@H](c1ccnc3ccc(F)cc31)CC2` [Compound 1-12] belongs less than 100 nM; to `N#Cc1ccc(NC(=O)[C@H]2C[C@]23CC[C@H](c2ccnc4ccc(F)cc42)CC3)nc1` [Compound 3-3], 100 to 1000 nM; to `CC1(C(=O)Nc2ccc(Cl)cc2)CC12CCC(c1ccnc3ccc(F)cc13)CC2` (single isomer, unassigned) [Compound 11-6, N-(4-chlorophenyl)-6-(6-fluoroquinolin-4-yl)-1-methylspiro[2.5]octane-1-carboxamide], less than 100 nM.
For the compound `O=C(Nc1ccc(C(F)(F)F)cn1)[C@H]1C[C@]12CC[C@H](c1ccnc3ccc(F)cc31)CC2` (stereo in doubt) [Compound 3-2, 6-(6-fluoroquinolin-4-yl)-N-(5-(trifluoromethyl)pyridin-2-yl)spiro[2.5]octane-1-carboxamide], the IC50 was more than 1000 nM.
`O=C(NC1CC2(CCN(c3ccnc4ccncc34)CC2)C1)c1ccc(Cl)cc1` [Compound 22-5, N-(7-(1,6-naphthyridin-4-yl)-7-azaspiro[3.5]nonan-2-yl)-4-chlorobenzamide] showed an IC50 of more than 1000 nM.
For `O=C(NC1CC12CCC(c1ccnc3ccc(F)cc13)CC2)c1ccc(Cl)cc1` (single isomer, unassigned) [Compound 9-5, 4-chloro-N-(6-(6-fluoroquinolin-4-yl)spiro[2.5]octan-1-yl)benzamide], the IC50 is more than 1000 nM.
`O=C(Nc1ccc(Cl)cc1)C1CC12CCC(c1ccnc3ccncc13)CC2` (single isomer, unassigned) [Compound 7-7, N-(4-chlorophenyl)-6-(1,6-naphthyridin-4-yl)spiro[2.5]octane-1-carboxamide] showed an IC50 of more than 1000 nM.
Take `N#Cc1ccc2nccc([C@H]3CC[C@@]4(CC3)C[C@@H]4C(=O)Nc3ccc(Cl)cc3)c2c1` [Compound 8-4B]: the IC50 is less than 100 nM.
`O=C(Nc1ccc(Cl)cc1)C1CC12CCC(c1ccnc3ccncc13)CC2` (single isomer, unassigned) [Compound 7-6, N-(4-chlorophenyl)-6-(1,6-naphthyridin-4-yl)spiro[2.5]octane-1-carboxamide] gave an IC50 of less than 100 nM.
Consider `COc1cc2nccc([C@H]3CC[C@@]4(CC3)C[C@@H]4C(=O)Nc3ccc(Cl)cc3)c2cn1` [Compound 8-4F], for which the IC50 is less than 100 nM.
With `O=C(N[C@H]1CC2(CC[C@H](c3ccnc4ccncc43)CC2)C1)c1ccc(Cl)cc1` (single isomer, unassigned) [Compound 21-4], the IC50 is less than 100 nM.
To `O=C(N[C@H]1CC2(CC[C@H](c3ccnc4ccc(F)cc43)CC2)C1)c1ccncc1` (stereo partly shown) [Compound 17-9] belongs 100 to 1000 nM; to `O=C(Nc1ccc(Cl)cc1)C1(C2CCC(c3ccnc4ccncc34)CC2)CC1` (stereo not shown) [Compound 28-5, 1-(4-(1,6-naphthyridin-4-yl)cyclohexyl)-N-(4-chlorophenyl)cyclopropane-1-carboxamide], less than 100 nM.
To `O=C(Nc1ccc(Cl)cc1)C1(C2CCC(c3ccnc4ccncc34)CC2)CC1` (mixture of isomers) [Compound 29-6, 1-(4-(1,6-naphthyridin-4-yl)cyclohexyl)-N-(4-chlorophenyl) cyclopropane-1-carboxamide] belongs less than 100 nM; to `COc1cc2nccc([C@H]3CC[C@@]4(CC3)C[C@@H]4C(=O)Nc3ccc(Cl)cc3)c2cc1OC` [Compound 8-4C], less than 100 nM.
To `N#Cc1ccc(NC(=O)[C@H]2C[C@]23CC[C@H](c2ccnc4ccc(F)cc42)CC3)cc1` (single isomer, unassigned) [Compound 4-6] belongs less than 100 nM; to `O=C(Nc1ccc(Cl)cn1)[C@H]1C[C@]12CC[C@H](c1ccnc3ccc(F)cc31)CC2` [Compound 2-3], 100 to 1000 nM; to `O=C(Nc1ccc(Cl)cc1)C1CC2(CCC(c3ccnc4ccc(F)cc34)CC2)C1` (single isomer, unassigned) [Compound 16-8, N-(4-chlorophenyl)-7-(6-fluoroquinolin-4-yl)spiro[3.5]nonane-2-carboxamide], more than 1000 nM.
In turn, `O=C(Nc1ccc(Cl)cc1)C1CC12CCN(c1ccnc3ccc(F)cc13)CC2` (single isomer, unassigned) [Compound 12-6, N-(4-chlorophenyl)-6-(6-fluoroquinolin-4-yl)-6-azaspiro[2.5]octane-1-carboxamide] displayed an IC50 of less than 100 nM.
Compound `O=C(Nc1ccc(Cl)cc1)C1CC12CCC(c1ccnc3ccc(F)cc13)CC2` (single isomer, unassigned) [Compound 1-11, N-(4-chlorophenyl)-6-(6-fluoroquinolin-4-yl)spiro[2.5]octane-1-carboxamide] gave an IC50 of more than 1000 nM.
The figure for `O=C(NC1CC2(CCC(c3ccnc4ccc(F)cc34)CC2)C1)c1ccc(Cl)cc1` (single isomer, unassigned) [Compound 17-7, 4-chloro-N-(7-(6-fluoroquinolin-4-yl)spiro[3.5]nonan-2-yl)benzamide] is 100 to 1000 nM; for `O=C(Nc1cccc(C(F)(F)F)c1)[C@H]1C[C@]12CC[C@H](c1ccnc3ccc(F)cc31)CC2` [Compound 1-17] it is more than 1000 nM.
Take `O=C(Nc1ccc(Cl)cc1)C1CC2(CCC(c3ccnc4ccc(F)cc34)CC2)C1` (single isomer, unassigned) [Compound 16-7, N-(4-chlorophenyl)-7-(6-fluoroquinolin-4-yl)spiro[3.5]nonane-2-carboxamide]: the IC50 is less than 100 nM.
In turn, `O=C(NC1(C2CCN(c3ccnc4ccc(F)cc34)CC2)CC1)c1ccc(Cl)cc1` [Compound 27-3, 4-chloro-N-[1-[1-(6-fluoroquinolin-4-yl)piperidin-4-yl]cyclopropyl]benzamide] returned an IC50 of 100 to 1000 nM.
`O=C(NC1CCC12CCC(c1ccnc3ccc(F)cc13)CC2)c1ccc(Cl)cc1` (stereo not shown) [Compound 14-7, 4-chloro-N-(7-(6-fluoroquinolin-4-yl)spiro[3.5]nonan-1-yl)benzamide] came in with an IC50 of more than 1000 nM.
As for `CC1(C(=O)Nc2ccc(Cl)cc2)CC12CCC(c1ccnc3ccc(F)cc13)CC2` (single isomer, unassigned) [Compound 11-5, N-(4-chlorophenyl)-6-(6-fluoroquinolin-4-yl)-1-methylspiro[2.5]octane-1-carboxamide], the IC50 was less than 100 nM.
Regarding `O=C(Nc1ccc(Cl)cc1)C1CC12CCC(c1ccnc3ccncc13)CC2` (racemic) [Compound 6-9, N-(4-chlorophenyl)-6-(1,6-naphthyridin-4-yl)spiro[2.5]octane-1-carboxamide], the IC50 is less than 100 nM.
The figure for `O=C(Nc1ccc(Cl)cc1)C1([C@H]2CC[C@@H](c3ccnc4ccc(F)cc43)CC2)CC1` [Compound 24-5A, N-(4-chlorophenyl)-1-(4-(6-fluoroquinolin-4-yl)cyclohexyl)cyclopropyl-1-carboxamide] is less than 100 nM; for `O=C(Nc1ccc(Cl)cc1)C1CC12CCN(c1ccnc3ccc(F)cc13)CC2` (single isomer, unassigned) [Compound 12-7, N-(4-chlorophenyl)-6-(6-fluoroquinolin-4-yl)-6-azaspiro[2.5]octane-1-carboxamide] it is more than 1000 nM.
`O=C(Nc1ccc(Cl)cc1F)[C@H]1C[C@]12CC[C@H](c1ccnc3ccc(F)cc31)CC2` [Compound 2-5] had an IC50 of less than 100 nM.
The compound `O=C(Nc1ccc(C2CC2)cc1)[C@H]1C[C@]12CC[C@H](c1ccnc3ccc(F)cc31)CC2` [Compound 1-13] showed an IC50 of 100 to 1000 nM.
`O=C(NC1(C2CCC(c3ccnc4ccc(F)cc34)CC2)CC1)c1ccc(Cl)cc1` (stereo not shown) [Compound 23-5A, 4-chloro-N-(1-(4-(6-fluoroquinolin-4-yl)cyclohexyl)cyclopropyl)-benzamide] had an IC50 of less than 100 nM.
Take `O=C(NC1CC12CCN(c1ccnc3ccc(F)cc13)CC2)c1ccc(Cl)cc1` (stereo not shown) [Compound 13-3, 4-chloro-N-(6-(6-fluoroquinolin-4-yl)-6-azaspiro[2.5]octan-1-yl)benzamide]: the IC50 was 100 to 1000 nM.
`O=C([C@H]1C[C@]12CC[C@H](c1ccnc3ccc(F)cc31)CC2)N1CCC(C(F)(F)F)CC1` [Compound 1-20] came in with an IC50 of more than 1000 nM.
Regarding `O=C(Nc1ccc(Cl)cc1F)[C@H]1C[C@]12CC[C@H](c1ccnc3ccc(F)cc31)CC2` (single isomer, unassigned) [Compound 4-7], the IC50 was less than 100 nM.
Regarding `O=C(Nc1ccc(Br)cc1F)[C@H]1C[C@]12CC[C@H](c1ccnc3ccc(F)cc31)CC2` (single isomer, unassigned) [Compound 4-8], the IC50 was less than 100 nM.
As to `O=C(NC1CC12CCC(c1ccnc3ccc(F)cc13)CC2)c1ccc(Cl)cc1` (single isomer, unassigned) [Compound 9-4, 4-chloro-N-(6-(6-fluoroquinolin-4-yl)spiro[2.5]octan-1-yl)benzamide], the IC50 is less than 100 nM.
`N#Cc1ccc(NC(=O)C2CC23CCC(c2ccnc4ccc(F)cc24)CC3)cc1` (stereo not shown) [Compound 2-1, N-(4-cyanophenyl)-6-(6-fluoroquinolin-4-yl)spiro[2.5]octane-1-carboxamide] yielded a concentration for half-maximal inhibition (IC50) of less than 100 nM.
`O=C(Nc1ccc(Cl)cc1)[C@H]1C[C@]12CC[C@H](c1ccnc3ccc(Cl)cc31)CC2` [Compound 8-4A] yielded an IC50 of less than 100 nM.
Regarding `O=C(Nc1ccc(Cl)cc1)C1CCC12CCC(c1ccnc3ccc(F)cc13)CC2` (stereo not shown) [Compound 15-3, N-(4-chlorophenyl)-7-(6-fluoroquinolin-4-yl)spiro[3.5]nonane-1-carboxamide], the IC50 was more than 1000 nM.
To `O=C(NC1CC2(CCN(c3ccnc4ccc(F)cc34)CC2)C1)c1ccc(Cl)cc1` [Compound 18-5, 4-chloro-N-(7-(6-fluoroquinolin-4-yl)-7-azaspiro[3.5]nonan-2-yl)benzamide] belongs less than 100 nM.
In turn, `O=C(Nc1ccccc1Cl)[C@H]1C[C@]12CC[C@H](c1ccnc3ccc(F)cc31)CC2` [Compound 2-2] came in with an IC50 of more than 1000 nM.
